Assay results reported in patent US20230059136A1, “THE COMPOUNDS AND COMPOSITIONS FOR TREATING CONDITIONS ASSOCIATED WITH NLRP ACTIVITY” (Novartis AG, priority 2018, published 2023).
One block for each compound: values may come before it.

Tests used:
[1] = tested on: IL-1β production in PMA-differentiated THP-1 cells; test: IL-1β production in PMA-differentiated THP-1 cells stimulated with gramicidin (hTHP-1 assay containing 2% fetal bovine serum); format: cell-based, human
In short: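 IL-1β release was read by HTRF on supernatants of 50,000 PMA-primed (20 ng/ml, 16-18 h) THP-1 cells/well in 2% FBS medium. Cells saw compound for 1 h (11-point titration from 100 μM, 0.37% DMSO) before a 2 h gramicidin (5 μM) challenge.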

[2] = tested on: IL-1β production in PMA-differentiated THP-1 cells; test: hTHP-1 assay containing 10% fetal bovine serum (IL-1β production, gramicidin-stimulated THP-1 cells); format: cell-based, human
Description: Activity key: <0.008 μM=“++++++”; ≥0.008 and <0.04 μM=“+++++”; ≥0.04 and <0.2 μM=“++++”; ≥0.2 and <1 μM=“+++”; ≥1 and <5 μM=“++”; ≥5 and <30 μM=“+”. ND=not determined.

[3] = read-out: hTHP-1 IC50 in 2% FBS, average IC50, hTHP-1 assay containing 2% fetal bovine serum
[4] = read-out: hTHP-1 IC50 in 10% FBS, average IC50
[5] = Homo sapiens, THP-1, read-out: hTHP-1 IC50 in 2% FBS, average IC50, hTHP-1 assay containing 2% fetal bovine serum
[6] = Homo sapiens, THP-1, read-out: hTHP-1 IC50 in 10% FBS, average IC50
[7] = Homo sapiens, THP-1, Table B2, 2% fetal bovine serum, class symbols, read-out: hTHP-1 IC50 (Average IC50 of compounds in hTHP-1 assay)
[8] = Homo sapiens, THP-1, Table B1, 2% fetal bovine serum, class symbols, read-out: hTHP-1 IC50 (Average IC50 of compounds in hTHP-1 assay)

IC50 [1, 3]: 200 to 1000 nM
IC50 [2, 4]: 40 to 200 nM
Structure (SMILES): CC(C)c1cc2c(c(C(C)C)c1CC(=O)N=S(N)(=O)c1nn(CCO)cc1F)OC(F)(F)O2 (racemic) [Example 405, (R) and (S)—N-(amino(4-fluoro-1-(2-hydroxyethyl)-1H-pyrazol-3-yl)(oxo)-λ^6-sulfaneylidene)-2-(2,2-difluoro-4,6-diisopropylbenzo[d][1,3]dioxol-5-yl)acetamide]

IC50 [1, 3]: 5000 to 30000 nM
IC50 [2, 4]: 5000 to 30000 nM
Structure (SMILES): CC(C)c1c(CC(=O)N=S(N)(=O)c2sc(C(C)(C)O)cc2F)c2c(c3c1OC(F)(F)O3)CCC2 (racemic) [Example 407, (R) and (S)—N-(amino(3-fluoro-5-(2-hydroxypropan-2-yl)thiophen-2-yl)(oxo)-λ^6-sulfaneylidene)-2-(2,2-difluoro-4-isopropyl-7,8-dihydro-6H-indeno[4,5-d][1,3]dioxol-5-yl)acetamide]

IC50 [1, 5]: 200 to 1000 nM
IC50 [2, 6]: 200 to 1000 nM
Structure (SMILES): CC(C)c1c2c(c3c(c1CC(=O)N=S(N)(=O)c1sc(C(C)(C)O)cc1F)CCC3)COC2 (single isomer, unassigned) [Example 411, (R) or (S)-N-(amino(3-fluoro-5-(2-hydroxypropan-2-yl)thiophen-2-yl)(oxo)-λ^6-sulfaneylidene)-2-(4-isopropyl-3,6,7,8-tetrahydro-1H-indeno[4,5-c]furan-5-yl)acetamide]

IC50 [2, 4]: 200 to 1000 nM
Structure (SMILES): CNCc1ccc(S(N)(=O)=NC(=O)Cc2c(-c3ccccc3)cc(F)cc2C(C)C)cc1 (single isomer, unassigned) [Example 414, (R) or (S)-N-(amino(4-((methylamino)methyl)phenyl) (oxo)-λ^6-sulfaneylidene)-2-(5-fluoro-3-isopropyl-[1,1′-biphenyl]-2-yl)acetamide]

IC50 [2, 4]: 40 to 200 nM
Structure (SMILES): CC(C)c1cc2c(c(C(C)C)c1CC(=O)N=S(N)(=O)c1nn(C[C@@H](C)O)cc1F)OC(F)(F)O2 (single isomer, unassigned) [Example 415, (R) or (S)-N-(amino(4-fluoro-1-((R)-2-hydroxypropyl)-1H-pyrazol-3-yl)(oxo)-λ^6-sulfaneylidene)-2-(2,2-difluoro-4,6-diisopropylbenzo[d][1,3]dioxol-5-yl)acetamide]

IC50 [2, 4]: 5000 to 30000 nM
Structure (SMILES): CC(C)c1cc2c(c(C(C)C)c1CC(=O)N=S(N)(=O)c1nn(C[C@@H](C)O)cc1F)OC(F)(F)O2 (single isomer, unassigned) [Example 416, (S) or (R)-N-(amino(4-fluoro-1-((R)-2-hydroxypropyl)-1H-pyrazol-3-yl)(oxo)-λ^6-sulfaneylidene)-2-(2,2-difluoro-4,6-diisopropylbenzo[d][1,3]dioxol-5-yl)acetamide]

IC50 [1, 7]: 200 to 1000 nM
Structure (SMILES): CCn1cc(F)c(S(N)(=O)=NC(=O)Cc2c(C(C)C)cc3c(c2C(C)C)OC(F)(F)O3)n1 (stereo not shown) [Example 394, N-(amino(1-ethyl-4-fluoro-1H-pyrazol-3-yl)(oxo)-λ^6-sulfaneylidene)-2-(2,2-difluoro-4,6-diisopropylbenzo[d][1,3]dioxol-5-yl)acetamide]

IC50 [1, 8]: 200 to 1000 nM
Structure (SMILES): CC(C)c1ccc(F)c(C(C)C)c1CC(=O)N=[S@@](N)(=O)c1cc(C(C)(C)O)cs1 [compound 88, (R)-N-(amino(4-(2-hydroxypropan-2-yl)thiophen-2-yl)(oxo)-λ^6-sulfanylidene)-2-(3-fluoro-2,6-diisopropylphenyl)acetamide]

IC50 [1, 8]: 200 to 1000 nM
Structure (SMILES): CC(C)c1nc(-c2cccc(C(F)(F)F)c2)c(F)c(C(C)C)c1CC(=O)N=[S@@](N)(=O)c1cnc(C(C)(C)O)s1 [compound 89, (R)-N-(amino(2-(2-hydroxypropan-2-yl)thiazol-5-yl)(oxo)-λ^6-sulfanylidene)-2-(5-fluoro-2,4-diisopropyl-6-(3-(trifluoromethyl)phenyl)pyridin-3-yl)acetamide]

IC50 [1, 7]: 1000 to 5000 nM
Structure (SMILES): CC(C)c1cc(C#N)c(F)c(C(C)C)c1CC(=O)N=S(N)(=O)c1cnc(C(O)CO)s1 (stereo not shown) [compound 382]

The next lines start with the compound.

Structure (SMILES): CC(C)c1cc2c(c(C(C)C)c1CC(=O)N=S(N)(=O)c1nn(CCO)cc1F)OC(F)(F)O2 (racemic) [Example 406, (R) and (S)—N-(amino(4-fluoro-1-(2-hydroxyethyl)-1H-pyrazol-3-yl)(oxo)-λ^6-sulfaneylidene)-2-(2,2-difluoro-4,6-diisopropylbenzo[d][1,3]dioxol-5-yl)acetamide]
IC50 [1, 3]: 5000 to 30000 nM
IC50 [2, 4]: 1000 to 5000 nM

Structure (SMILES): CC(C)c1c(CC(=O)N=S(N)(=O)c2sc(C(C)(C)O)cc2F)c2c(c3c1OC(F)(F)O3)CCC2 (racemic) [Example 408, (R) and (S)—N-(amino(3-fluoro-5-(2-hydroxypropan-2-yl)thiophen-2-yl)(oxo)-λ^6-sulfaneylidene)-2-(2,2-difluoro-4-isopropyl-7,8-dihydro-6H-indeno[4,5-d][1,3]dioxol-5-yl)acetamide]
IC50 [1, 3]: 200 to 1000 nM
IC50 [2, 4]: 200 to 1000 nM

Structure (SMILES): CC(C)c1c2c(c3c(c1CC(=O)N=S(N)(=O)c1sc(C(C)(C)O)cc1F)CCC3)COC2 (single isomer, unassigned) [Example 412, (S) or (R)-N-(amino(3-fluoro-5-(2-hydroxypropan-2-yl)thiophen-2-yl)(oxo)-λ^6-sulfaneylidene)-2-(4-isopropyl-3,6,7,8-tetrahydro-1H-indeno[4,5-c]furan-5-yl)acetamide]
IC50 ([1]; Homo sapiens, THP-1, read-out: hTHP-1 IC50 in 2% FBS, average IC50, hTHP-1 assay containing 2% fetal bovine serum, given as numeric bound): > 30000 nM
IC50 ([2]; Homo sapiens, THP-1, read-out: hTHP-1 IC50 in 10% FBS, average IC50, given as numeric bound): > 30000 nM

Structure (SMILES): CNCc1ccc(S(N)(=O)=NC(=O)Cc2c(-c3ccccc3)cc(F)cc2C(C)C)cc1 (single isomer, unassigned) [Example 413, (S) or (R)-N-(amino(4-((methylamino)methyl)phenyl) (oxo)-λ^6-sulfaneylidene)-2-(5-fluoro-3-isopropyl-[1,1′-biphenyl]-2-yl)acetamide]
IC50 [2, 4]: 5000 to 30000 nM

Structure (SMILES): CC(C)c1cccc(C(C)C)c1CC(=O)N=S(N)(=O)c1ccc(CCNC(=O)CCCc2ccccc2)cc1 (stereo not shown) [Compound 409]
IC50 [1, 5]: 1000 to 5000 nM
IC50 [2, 6]: 200 to 1000 nM

Structure (SMILES): CC(C)c1c2c(c3c(c1CC(=O)N=S(N)(=O)c1sc(C(C)(C)O)cc1F)CCC3)COC2 (stereo not shown) [Example 395, N-(Amino(3-fluoro-5-(2-hydroxypropan-2-yl)thiophen-2-yl) (oxo)-λ^6-sulfaneylidene)-2-(4-isopropyl-3,6,7,8-tetrahydro-1H-indeno[4,5-c]furan-5-yl)acetamide]
IC50 [1, 7]: 200 to 1000 nM

Structure (SMILES): Cc1cc(C(F)(F)F)cc(O)c1CC(=O)N=S(N)(=O)c1ccccc1 (stereo not shown) [Example 404, N-(amino(oxo)(phenyl)-λ^6-sulfaneylidene)-2-(2-hydroxy-6-methyl-4-(trifluoromethyl)phenyl)acetamide]
IC50 [1, 5]: 5000 to 30000 nM

Structure (SMILES): CC(C)c1cc(C#N)c(F)c(C(C)C)c1CC(=O)N=S(=O)(NC(N)=O)c1cnc([C@](C)(O)CO)s1 (stereo partly shown) [compound 355]
IC50 ([1]; Homo sapiens, THP-1, Table B2, 2% fetal bovine serum, cells printed as numeric bound, read-out: hTHP-1 IC50 (Average IC50 of compounds in hTHP-1 assay)): > 30000 nM
